These results are taken from US4604238A, “Analogs of calcitonin” (Armour Pharmaceutical Company, priority 1984, dated 1986).

For assay [1] the following is noted: literature values, Experientia 32(9), 1104-1106 (1976); cited from earlier work.
In assay [2] the test system is serum calcium concentration.
Experimental: Biological Assay of Calcitonin Analogs In Vivo
Rats were divided into four groups of seven animals, and each group was assigned at random to a dose of standard or test solution. Low and high doses were chosen from the linear portion of the dose-response curve. For the salmon calcitonin standard, the values were 0.7 and 2.1 ng. peptide/100 g. body weight (BW). This dose approximates 3 and 9 MU/100 g. BW. Peptides were given by subcutaneous injection (0.2 ml/100 g. BW) and blood was withdrawn 1 hour later for serum calcium determination. Sera are processed and analyzed within two hours of collection. Results were analyzed within two hours of collection.

Bridge positions count the residues as written; N and C are the ends. Peptide text beside a SMILES is read from it.

In the case of “eel calcitonin [synthetic eel calcitonin]”, in assay [1], the hypocalcemic potency result is “around 4300 IU/mg”.

Regarding `CC(C)C[C@H](NC(=O)CNC(=O)[C@@H]1CSSC[C@H](N)C(=O)NCC(=O)N[C@@H](CO)C(=O)N[C@@H](CC(C)C)C(=O)N[C@@H](CO)C(=O)N[C@@H]([C@@H](C)O)C(=O)N1)C(=O)NCC(=O)N[C@@H](CCCCN)C(=O)N[C@@H](CC(C)C)C(=O)N[C@@H](CO)C(=O)N[C@@H](CCC(N)=O)C(=O)N[C@@H](CCC(=O)O)C(=O)N[C@@H](CC(C)C)C(=O)N[C@@H](Cc1c[nH]cn1)C(=O)N[C@@H](CCCCN)C(=O)N[C@@H](CC(C)C)C(=O)N[C@@H](CCC(N)=O)C(=O)N[C@H](C(=O)N1CCC[C@H]1C(=O)N[C@@H](CCCNC(=N)N)C(=O)N[C@H](C(=O)N[C@@H](CC(N)=O)C(=O)N[C@H](C(=O)NCC(=O)N[C@@H](CO)C(=O)NCC(=O)N[C@H](C(=O)N1CCC[C@H]1C(N)=O)[C@@H](C)O)[C@@H](C)O)[C@@H](C)O)[C@@H](C)O` [[Gly^2,Ser^3,Gly^8,des-Tyr^22]SCT, [Gly^2,Ser^3,Gly^8,des-Tyr^22]salmon calcitonin] (H-CGSLSTCGLGKLSQELHKLQTPRTNTGSGTP-NH2; disulfide 1-7), the biological potency in assay [2] (rat, in vivo, sc) is 8600 IU/mg.

Turning to “(1,7α-L-aminosuberic acid)eel calcitonin”, in assay [1], the hypocalcemic potency entry is on record as “about 3400 IU/mg”.

Turning to `CC(C)C[C@H](NC(=O)[C@H](CCCCN)NC(=O)CNC(=O)[C@H](CC(C)C)NC(=O)[C@@H](NC(=O)[C@@H]1CSSC[C@H](N)C(=O)N[C@@H](CO)C(=O)N[C@@H](CC(N)=O)C(=O)N[C@@H](CC(C)C)C(=O)N[C@@H](CO)C(=O)N[C@@H]([C@@H](C)O)C(=O)N1)C(C)C)C(=O)N[C@@H](CO)C(=O)N[C@@H](CCC(N)=O)C(=O)N[C@@H](CCC(=O)O)C(=O)N[C@@H](CC(C)C)C(=O)N[C@@H](Cc1c[nH]cn1)C(=O)N[C@@H](CCCCN)C(=O)N[C@@H](CC(C)C)C(=O)N[C@@H](CCC(N)=O)C(=O)N[C@H](C(=O)N[C@@H](Cc1ccc(O)cc1)C(=O)N1CCC[C@H]1C(=O)N[C@@H](CCCNC(=N)N)C(=O)N[C@H](C(=O)N[C@@H](CC(N)=O)C(=O)N[C@H](C(=O)NCC(=O)N[C@@H](CO)C(=O)NCC(=O)N[C@H](C(=O)N1CCC[C@H]1C(N)=O)[C@@H](C)O)[C@@H](C)O)[C@@H](C)O)[C@@H](C)O` [salmon calcitonin, Salmon calcitonin], the “potency of the standard salmon calcitonin used” value in assay [2] (independently determined content of the standard) is reported as “greater than 4,000 IU/mg”.
